Laboratory results from paper PMC12880750, “Mechanistic insights and in vivo HIV suppression by the BRD4-targeting small molecule ZL0580” (PLOS Pathogens, 2026).
pIC50: −log10 of the molar value.

Tests used:
[1] = tested on: BRD4-knockout (KO) J-Lat cells; test: RT-qPCR of differentially expressed genes, BRD4-KO J-Lat cells; assay type: cell-based, human; settings: same treatments
Experimental: To validate the RNA-Seq results, RT-qPCR analysis was performed on a subset of differentially expressed genes (DEGs) (Fig 3E). Eight representative DEGs were selected based on statistical significance (adjusted p values) and their involvement in key pathways identified by GSEA, including lipid metabolism/cholesterol biosynthesis (HMGCS1, SQLE, DHCR7) and cytokine signaling (ITK and DUSP8). Relative gene expression levels were normalized to the housekeeping gene GAPDH. […] As an additional control, RT-qPCR was also performed on RNA isolated from BRD4-knockout (KO) J-Lat cells that received the same treatments. The generation and characterization of BRD4-KO J-Lat cells were described previously.
RT-qPCR was performed as previously reported.

[2] = target: T1, BRD4 BD1 WT (Homo sapiens, UniProt O60885); test: Thermal shift assay (TSA/DSF), BD1 WT; assay type: binding; settings: eight increasing concentrations
T1 construct: Constructs used for mutagenesis, including wild-type BD1 (BD1 WT), BD1 with an E151A mutation (BD1 E151A), and wild-type BD2 (BD2 WT); GST (cleaved yes); made in house
Experimental: (§1) The melting temperatures shifts (ΔTm) were measured and the ΔTm curves as a function of compound-to-protein ratios were generated (Fig 2B–2C). […] As an additional control, the Tm of WT BD1 and E151A mutant in the absence of compound was also measured by TSA.
(§2) Plasmid construction and subsequent protein expression and purification of BRD4 proteins were performed using OverExpress C43(DE3) bacterial competent cells (Lucigen) as described in our previous studies. In brief, 12 L of bacterial cultures grown to OD600 between 0.6-0.8 were induced at 37°C for 4 h by 1 mM isopropyl […] (IPTG). Bacterial sonication supernatant in the lysis buffer (500 mM NaCl, 20 mM Tris-HCl pH 7.9 at 4°C, 20% glycerol, 1 mM EDTA, 0.2 mM DTT, and protease inhibitors) was incubated with glutathione (GSH) agarose beads (GOLDBIO, G-250–100) overnight with rotation at 4°C. The protein-bound GSH beads were washed three times with the lysis buffer and digested with human rhinovirus 3C protease (HRV-P3C; Thermal Fisher 88946) at 4°C for 4 h, according to the manufacture’s procedure, to remove GST tag from BD1/2 proteins. Untagged BRD4-BD1 and -BD2 were separated from HRV-P3C via passing through a HiTrap Q HP anion exchange chromatography column (GE Healthcare, GE17-1154-01) and eluted by a salt gradient from 100 mM to 1 M NaCl. […]

[3] = target: T2, BRD4 BD2 WT (Homo sapiens, UniProt O60885); test: Thermal shift assay (TSA/DSF), BD2 WT; assay type: binding; settings: eight increasing concentrations
T2 construct: Constructs used for mutagenesis, including wild-type BD1 (BD1 WT), BD1 with an E151A mutation (BD1 E151A), and wild-type BD2 (BD2 WT); GST (cleaved yes); made in house
Experimental: as §1, §2

[4] = tested on: BRD4 BD2; parameters: method as in PMID 31329163; settings: in vitro binding affinity; cited from earlier work
[5] = tested on: J-Lat cells (clone 10.6); test: RNA-Seq differential gene expression; assay type: cell-based, human; settings: 5 μM, 24 hours, vs. NC; p < 0.001 and log2 fold change > 1
Experimental: 24 hours after treatment, RNA was extracted from cells for sequencing analysis. RNA-Seq was conducted on duplicate samples for each condition.
Following the treatment, total RNA was extracted from the cells using the RNeasy Mini Kit (Qiagen) in accordance with the manufacturer’s instructions. To ensure the integrity and quality of the isolated RNA, samples were first quantified and then analyzed by agarose gel electrophoresis. Clear and intact ribosomal RNA bands confirmed that the RNA was of high quality and suitable for downstream applications. The verified RNA samples were subsequently submitted for high-throughput RNA sequencing (RNA-seq) to evaluate transcriptomic changes induced by the respective treatments. RNA sample quality was assessed using Agilent Bioanalyzer and samples with a RIN value larger than 7.0 were used for library preparation. RNA-Seq libraries were prepared using NEBNext Poly(A) mRNA Magnetic Isolation module (E7490) and NEBNext Ultra II Directional RNA Library Prep kit for illumina (E7760) following manufacturer’s recommended procedure. The library quality was assessed using Agilent Bioanalyzer High Sensitivity DNA chip and real-time PCR and pooled together for sequencing. The pooled library was sequenced on Illumina NextSeq 550 Mid Output 150 cycle kit for Paired End 75 bp reads targeting ~20 million paired reads per sample. The sequencing reads were mapped to human reference genome hg38 using STAR v2.7.5c [59] using recommended ENCODE parameters. Differential gene expression analysis was performed using Bioconductor DESeq 2 package [60].

[6] = tested on: CDK9 binding to HIV 5′-LTR in J-Lat cells (10.6); test: ChIP-qPCR of CDK9 binding to HIV 5'-LTR; assay type: cell-based, human; settings: PMA (50ng/ml) + compound 5 μM, 24 hours
Experimental: Twenty-four hours later, cells were subjected to ChIP-qPCR using an anti-CDK9 antibody, with isotype IgG as the ChIP control.
24 hours after treatments, ChIP-qPCR was performed using a CDK9-specific antibody to examine the recruitment of CDK9 to HIV 5’-LTR in J-Lat cells. ChIP using an isotype IgG was included for normalization. Data were shown as fold change in the precipitated HIV 5′ LTR by the CDK9 antibody relative to the control isotype IgG for each treatment condition.
ChIP was performed using a method reported previously [41]. About 15 × 10⁶ J-Lat cells were treated according to the conditions described in the Main Text. After treatment, cells were collected, washed once with PBS, and resuspended in 10 mL PBS. To cross-link protein–DNA complexes, cells were fixed with 37% formaldehyde, and the reaction was quenched by adding 10Xglycine and incubating for 5 min at room temperature. The cells were then pelleted by centrifugation, and the pellets were incubated in ice-cold lysis buffer for 30 min. […] After extensive washing with the appropriate ChIP buffers, immune complexes were eluted, reverse cross-linked, and treated with proteinase K. DNA was purified using phenol–chloroform extraction and subsequently analyzed by qPCR. […] ChIP-qPCR results were quantified using the fold-enrichment method as previously reported [41].

O=C(Nc1ccc(C(F)(F)F)cc1)Nc1ccc(S(=O)(=O)N2CCC[C@H]2C(=O)Nc2ccccc2)cc1 [ZL0580]
Contrasting regulatory effects on representative DEGs in the absence of BRD4 [1]: largely abolished | Effect on stability of WT BD1 (TSA) [2]: dose-dependently increased the stability | Effect on stability of WT BD2 (TSA) [3]: sparing BD2 | pIC50 [4]: 5.97 | Downregulated genes [5]: 104 genes | Significantly regulated genes (total) [5]: 166 genes | Upregulated genes [5]: 62 genes | Reduction of CDK9 binding relative to PMA alone [6]: ~ 3.8 fold
